Test [1] concerns influenza A virus WSN A/WSN/1933 (H1N1). More on the design: species or system BALB/c mice. The conditions noted are these: mouse, in vivo.
The test system is the same in test [2]. Conditions: A549 cells, MOI=0.1, 12 ng naproxen per dish, FIG. 8A.
In test [3] the target is influenza A virus nucleoprotein (ANP) (Influenza A virus, UniProt P15682). The conditions noted are these: ITC; protein ANP. For orientation: In ITC the heat of successive injections is recorded.
For test [4], the system named is influenza B virus Lee40. The conditions noted are these: A549 cells, MOI=1, 12 ng naproxen per dish, FIG. 8B.
The target of a further test is binding of BNP to CRM1 (Influenza B virus, UniProt P04665).
Sequence of binding of BNP to CRM1 (P04665 whole entry): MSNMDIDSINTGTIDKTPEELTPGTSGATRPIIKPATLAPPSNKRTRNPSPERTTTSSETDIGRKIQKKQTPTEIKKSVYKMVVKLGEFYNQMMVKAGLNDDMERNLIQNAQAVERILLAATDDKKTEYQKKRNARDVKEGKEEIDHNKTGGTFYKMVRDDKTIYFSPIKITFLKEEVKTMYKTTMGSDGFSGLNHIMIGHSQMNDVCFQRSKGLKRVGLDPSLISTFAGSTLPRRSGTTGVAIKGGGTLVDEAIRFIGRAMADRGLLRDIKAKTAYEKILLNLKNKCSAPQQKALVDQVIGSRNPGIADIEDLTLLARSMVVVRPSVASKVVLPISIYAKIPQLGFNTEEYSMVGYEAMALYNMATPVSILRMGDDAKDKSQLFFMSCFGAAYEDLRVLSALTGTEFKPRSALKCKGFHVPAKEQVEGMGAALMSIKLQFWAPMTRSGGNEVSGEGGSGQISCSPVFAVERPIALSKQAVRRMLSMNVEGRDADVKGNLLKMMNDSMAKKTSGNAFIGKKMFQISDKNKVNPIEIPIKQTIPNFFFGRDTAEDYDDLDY
The target of test [5] is influenza B virus nucleoprotein (BNP) (Influenza B virus, UniProt P04665). Conditions: ITC; protein BNP.
Sequence of influenza B virus nucleoprotein (BNP) (P04665 whole entry): as above
A further test concerns the target binding of ANP to CRM1 (Influenza A virus, UniProt P15682).
The test system of test [6] is influenza B virus Lee40. More on the design: species or system BALB/c mice. The conditions noted are these: mouse, in vivo.

Values joined by “and” are separate entries in the source; they are usually repeats but may differ in a detail not shown here. Equal values may be shown once. Read-outs that look alike come from different tables or passages of the source.

Sequence of influenza A virus nucleoprotein (ANP) (P15682 whole entry): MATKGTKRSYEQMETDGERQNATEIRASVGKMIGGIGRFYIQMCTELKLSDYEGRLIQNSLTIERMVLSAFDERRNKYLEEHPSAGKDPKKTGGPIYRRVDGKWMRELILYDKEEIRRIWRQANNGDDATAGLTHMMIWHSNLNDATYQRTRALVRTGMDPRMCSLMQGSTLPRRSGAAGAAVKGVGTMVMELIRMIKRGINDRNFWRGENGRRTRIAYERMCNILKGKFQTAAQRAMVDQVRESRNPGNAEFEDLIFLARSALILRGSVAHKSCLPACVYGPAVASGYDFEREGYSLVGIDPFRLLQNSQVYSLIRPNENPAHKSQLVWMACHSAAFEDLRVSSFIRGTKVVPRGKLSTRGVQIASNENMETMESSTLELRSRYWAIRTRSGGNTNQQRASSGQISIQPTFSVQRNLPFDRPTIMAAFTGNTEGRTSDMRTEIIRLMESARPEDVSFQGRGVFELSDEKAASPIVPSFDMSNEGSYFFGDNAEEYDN
Sequence of binding of ANP to CRM1 (P15682 whole entry): as above

With `COc1ccc2cc(C(C)C(=O)O)ccc2c1` (stereo not drawn) [naproxen, (+) α-methyl-6-methoxy-2-naphthaleneacetic acid], in test [1], the “body weight course after infection” value is “slowly recovered”; the “lung injuries (macroscopical lesions)” value is listed as “lung injuries were milder”; the “viral load of the lung, treatment effect” value is listed as “better”. The “virus titer versus untreated cells” value in test [2] is “significant decrease in virus titer”. Also, in test [3], the “n (stoichiometry)” value is 1.23, the ΔH is -1.33 kcal/mol and the ΔS is given as 64.76 J/mol · K. Further, in the test on influenza B virus Lee40 [4], the “virus titer versus untreated cells” value is on record as “significant decrease in virus titer”. In addition, the “binding of BNP to CRM1” value at binding of BNP to CRM1 is listed as “did not bind to CRM1”. Moreover, in test [5], the “n (stoichiometry)” value turned out to be 0.93, the ΔH was -0.325 kcal/mol and the ΔS was found to be 138.40 J/mol · K. Besides, the “binding of ANP to CRM1” value on binding of ANP to CRM1 is given as “did not bind to CRM1”. For the same compound, in the test with influenza B virus Lee40 [6], the “body weight course after infection” value is recorded as “slowly recovered”; the “lung injuries (macroscopical lesions)” value is given as “lung injuries were milder”; the “viral load of the lung, treatment effect” value is “better”. Besides, the survival rate in the test with influenza B virus Lee40 [6] (ip) is 75% and 100%.

As for `CCOC(=O)C1=C[C@@H](OC(CC)CC)[C@H](NC(C)=O)[C@@H](N)C1` [oseltamivir], in test [1], the “body weight course after infection” value is listed as “slowly recovered”, the “lung index (lung mass/body weight)” value is “lung indexes were lower”, the “lung injuries (macroscopical lesions)” value is listed as “lung injuries were milder” and the survival rate is given as 100%. Further, the “viral load of the lung, treatment effect” value in test [1] is “better”. Besides, in the test with influenza B virus Lee40 [6], the “body weight course after infection” value is reported as “slowly recovered” and the survival rate is 37.5%.

Values taken from patent US20200297798A1, “KEY AMINO ACID SITES […] EXPORT OF NUC[…] INFLUENZA A AND B VIRUSES AND USE THEREOF AS ANTI-INFLUENZA VIRUS DRUG TARGETS” (INSTITUTE OF MICROBIOLOGY, CHINESE ACADEMY OF SCIENCES, priority 2017, published 2020).
